Laboratory results: patent publication US20150219624A1, “METHODS FOR IDENTIFYING ANTI-CANCER COMPOUNDS” (MEMORIAL SLOAN KETTERING CANCER CENTER, priority 2013, published 2015)

Key:
KOPTK1 cells [1] = assay: Polysome profiling; assay type: cell-based, human; conditions: 25 nM, 45 minutes
Protocol: Polysome profiling. KOPTK1 cells were treated with silvestrol or DMSO for 45 minutes, followed by cycloheximide treatment for 10 minutes. Cell pellet was lysed in polysome lysis buffer (300 mM NaCl, 15 mM Tris-HCl (pH 7.5), 15 mM MgCl2, 1% TritonX-100, 0.1 mg/ml Cycloheximide, 1 mg/ml Heparin). Polysome fractions were isolated using 4 ml 10-50% sucrose density gradients (300 mM NaCl, 100 mM MgCl2, 15 mM Tris-HCl (pH 7.5), 1 mg/ml Cycloheximide, 10 mg/ml Heparin). Gradients were centrifuged in an SW40Ti rotor at 35,000 rpm for 2 hrs. Fractions of 100 ul were collected manually from the top, and optical density (OD) at […] was measured.
FIG. 10 depicts ribosome profiling quality control data and effects on translation. A and B) Read counts by length of mapped sequence before and after filtering rRNA, linker reads, non-coding RNAs, short mapped sequences (“noisy” reads; see text and method for details). C and D) Read length frequency histograms and mapping analysis of ribosome footprint data after quality control filtering for vehicle treated cells (C) or silvestrol treated cells (D). […] F) Histogram of all genes' ribosome footprint intensity (measured as unique read number per million per gene, RPM) for silvestrol and vehicle treated cells indicating silvestrol affected mRNAs were broadly distributed (see text for details). […]

PANC-1 = assay: Silvestrol sensitivity and KRAS protein levels in PANC-1; assay type: cell-based
Description: KRAS has a long T1/2 compared to MYC, and therefore the effect is less pronounced. The in vitro activity of an S6 kinase inhibitor, rapamycin, silvestrol and combinations on PNAC1 and MiaPaca2 cells are shown in FIGS. 24B and 24C, respectively.

renal carcinoma lines = assay: Silvestrol sensitivity of renal carcinoma lines; assay type: cell-based; conditions: ACHN, A498, CAKI-1, CAKI-2 to 786-O
KOPTK1 cells [2] = assay: Metabolic labeling of nascent protein with L-azidohomoalanine (AHA); assay type: cell-based, human; conditions: 25 nM; p vs. vehicle 3.6×10−3
Protocol: (Non-radioactive) Metabolic labeling of nascent protein. KOPTK1 cells were labeled for nascent protein synthesis using Click-iTR AHA (L-azidohomoalanine) metabolic labeling reagent obtained from Invitrogen (cat no. C10102) as per manufacturer's instructions. Briefly, following silvestrol, Cycloheximide or DMSO treated cells were incubated in methionine free medium for 30 min prior to AHA labeling for 1 hr. Cells were fixed with 4% paraformaldehyde in PBS for 15 min, permeablized with 0.25% Triton X-100 in PBS for 15 min followed by one wash with 3% BSA. Cells were then stained using Alexa Fluor 488 Alkyne (Invitrogen cat no. A10267) with Click-iT Cell reaction Buffer Kit (Invitrogen cat no. C10269). Changes in mean fluorescence intensity as a measure of newly synthesized protein was detected by Flow cytometry analysis.
The number of ribosomes occupying a given transcript is given as gene specific RF reads per one million total reads (RPM).
FIG. 10 depicts ribosome profiling quality control data and effects on translation. A and B) Read counts by length of mapped sequence before and after filtering rRNA, linker reads, non-coding RNAs, short mapped sequences (“noisy” reads; see text and method for details). C and D) Read length frequency histograms and mapping analysis of ribosome footprint data after quality control filtering for vehicle treated cells (C) or silvestrol treated cells (D). […]

IMR32 = assay: Silvestrol in neuroblastoma cell lines in vitro: IMR32; assay type: cell-based; conditions: Homo sapiens, IMR-32; IMR32 cells, N_MYC
Protocol: (§1) The effect of silvestrol on several neuroblastoma cell lines was evaluated.

human T-ALL lines = assay: Activity in established human T-ALL cell lines; assay type: cell-based; conditions: PTEN wild type vs PTEN mutant
BE(1)N = assay: Silvestrol in neuroblastoma cell lines in vitro: BE(1)N; assay type: cell-based; conditions: BE(1)N cells, N-MYC
Protocol: as §1

SKNCM = assay: Silvestrol in neuroblastoma cell lines in vitro: SKNCM; assay type: cell-based; conditions: SKNCM cells
Protocol: as §1

[3] = system: neuroblastoma cell lines SKNAS, CLBGA, IMR32 and N206; assay: Silvestrol IC50 in neuroblastoma cell lines SKNAS, CLBGA, IMR32 and N206; assay type: cell-based

## COC(=O)[C@H]1[C@@H](O)[C@@]2(O)c3c(OC)cc(O[C@@H]4O[C@@H]([C@H](O)CO)CO[C@H]4OC)cc3O[C@@]2(c2ccc(OC)cc2)[C@@H]1c1ccccc1 [silvestrol]
KOPTK1 cells [1]
  polyribosome bound RNA (fractions 30-40): loss of polyribosome bound RNA
PANC-1; PANC1 cells, 50 nM
  KRAS expression: loss of KRAS expression
PANC-1; PANC-1, 20 nM
  KRAS expression: loss of KRAS expression
Renal carcinoma lines
  sensitivity: range of sensitivities
KOPTK1 cells [2]
  max. reduction of nascent protein synthesis (AHA labeling): ~60%
IMR32
  IC50: 2.86 nM
Human T-ALL lines
  activity against PTEN wild type and PTEN mutant cell lines and primary T-ALL cells: equal activity
BE(1)N
  IC50: 2.52 nM
SKNCM
  IC50: 20.2 nM
[3]
  IC50: 2 to 20 nM
